Test results from publication PMC7187312 (The New Phytologist, 2020).

Test system: Spinacia oleracea PM H^+-ATPase preincubated with FC/14-3-3 or TeA/14-3-3
Assay type: biochemical

With `C=CC(C)(C)OC[C@H]1O[C@H](O[C@@H]2C3=C([C@H](C)COC(C)=O)C[C@H](O)[C@]3(C)/C=C3/[C@@H](COC)CC[C@H]3[C@@H](C)[C@H]2O)[C@H](O)[C@@H](OC(C)=O)[C@@H]1O` [FC, Fusicoccin] the “effect on PM H^+-ATPase activity” value was “activate” and the specific activity was 44.1 Pi mg^−1 protein min^−1.
